The subject of one assay is Caenorhabditis elegans. Briefly: Nematicidal activity against Caenorhabditis elegans at 100 ug/ml. The assay is classed as functional, organism-based.
Another assay relates to Botrytis cinerea. The assay can be described thus: Antimicrobial activity against Botrytis cinerea assessed as inhibition of conidial germination after 16 hrs by inverted microscopic analysis. The assay is classed as functional.
In a further assay the test system is Penicillium chrysogenum. The assay can be described thus: Antimicrobial activity against Penicillium notatum assessed as inhibition of conidial germination after 16 hrs by inverted microscopic analysis. The assay is classed as functional.
A further assay concerns Paecilomyces variotii. The assay can be described thus: Antimicrobial activity against Paecilomyces variotii assessed as inhibition of conidial germination after 16 hrs by inverted microscopic analysis. The assay is classed as functional.
The subject of a further assay is Rhizomucor miehei. The assay can be described thus: Antimicrobial activity against Mucor miehei assessed as inhibition of conidial germination after 16 hrs by inverted microscopic analysis. The assay is classed as functional.
Another assay relates to Brevibacillus brevis. Briefly: Antimicrobial activity against Bacillus brevis at 50 ug/disk by agar diffusion assay. In kind it is functional. The note with it: read-out: IZ.
A further assay relates to Bacillus subtilis. The assay can be described thus: Antimicrobial activity against Bacillus subtilis at 50 ug/disk by agar diffusion assay. In kind it is functional. As to conditions: read-out: IZ. For orientation: In agar diffusion tests the substance spreads into inoculated agar from a disc or well.
For another assay, the system named is Eremothecium coryli. The assay can be described thus: Antimicrobial activity against Nematospora coryli at 50 ug/disk by agar diffusion assay. The note with it: read-out: IZ. In kind it is functional.
The next assay relates to Escherichia coli. Briefly: Antimicrobial activity against Escherichia coli K-12 by serial dilution test. The assay is classed as functional.
For assay [1], the system named is Enterobacter cloacae subsp. dissolvens. The assay can be described thus: Antimicrobial activity against Enterobacter dissolvens by serial dilution test. In kind it is functional.
The test system of the next assay is Proteus vulgaris. Briefly: Antimicrobial activity against Proteus vulgaris by serial dilution test. In kind it is functional.
The nature of assay [2]: Cytotoxicity against human HeLaS3 cells assessed as reduction in cell proliferation. The assay is classed as functional, cell-based. The note with it: HeLa S3.
In assay [3] the test system is Lepidium sativum. The assay can be described thus: […] against Lepidium sativum assessed as seed germination up to 300 ug/ml. The assay is classed as functional, organism-based.
Assay [4] relates to Setaria italica. The assay can be described thus: […] against Setaria italica assessed as seed germination up to 300 ug/ml. In kind it is functional, organism-based.
In the next assay the test system is Meloidogyne incognita. The assay can be described thus: Nematicidal activity against Meloidogyne incognita at 100 ug/ml. The assay is classed as functional, organism-based.
Assay [5] has as its system Lepidium sativum. The assay can be described thus: […] against Lepidium sativum assessed as inhibition of seedling growth up to 300 ug/ml. The assay is classed as functional, organism-based.
Assay [6] has as its system Setaria italica. The assay can be described thus: […] against Setaria italica assessed as inhibition of seedling growth up to 300 ug/ml. In kind it is functional, organism-based.
Another assay deals with Pyricularia grisea. The assay can be described thus: Antimicrobial activity against Magnaporthe grisea assessed as inhibition of conidial germination after 16 hrs by inverted microscopic analysis. The assay is classed as functional.
The next assay has as its system Fusarium graminearum. The assay can be described thus: Antimicrobial activity against Fusarium graminearum assessed as inhibition of conidial germination after 16 hrs by inverted microscopic analysis. The assay is classed as functional.
In another assay the test system is Phytophthora infestans. The assay can be described thus: Antimicrobial activity against Phytophthora infestans assessed as inhibition of conidial germination after 16 hrs by inverted microscopic analysis. The assay is classed as functional.

What is called MIC is the lowest concentration found to suppress growth. The low end stands for inhibition by little substance, the high end for a need for much substance. What is called IC50 is the midpoint of a concentration-inhibition curve.

Values after ≈ are worked out from the molar mass of the structure shown. Active and inactive are the calls of the source. The calls are words filed in the database; no cut-off is given here. A value given as a limit tells only on which side of the number the result lay.

Consider `COc1cc(O)c2c(c1)C(=O)C1=C(C2=O)C(OC)OC(C)=C1` (configuration not stated) [ASCOMYCONE A], for which the outcome in the assay on Caenorhabditis elegans, in the assay on Lepidium sativum [3], with Setaria italica [4], in the assay on Meloidogyne incognita, in the assay with Lepidium sativum [5] and in the assay with Setaria italica [6] was inactive. For the same compound, the IC100 was over 50 µg/mL in the assay with Botrytis cinerea, over 50 µg/mL in the assay on Penicillium chrysogenum, over 50 µg/mL in the assay on Paecilomyces variotii and 50 µg/mL with Rhizomucor miehei. Besides, the zone of inhibition at 50 µg/disc with Brevibacillus brevis turned out to be 14 mm; in the assay on Bacillus subtilis, 11 mm; with Eremothecium coryli, 0 mm. Besides, the MIC (against Escherichia coli; in assay [1]; in the assay on Proteus vulgaris) was over 50 µg/mL each time. Further, the IC50 in [2] amounted to 5 µg/mL (≈ 16.5 µM).

For `COc1cc(O)c2c(c1)C(=O)C1=C(C2=O)C(O)OC(C)=C1` (configuration not stated) [ASCOMYCONE B], the outcome with Caenorhabditis elegans, with Lepidium sativum [3], with Setaria italica [4], in the assay on Meloidogyne incognita, with Lepidium sativum [5] and with Setaria italica [6] was inactive. Besides, the IC100 with Pyricularia grisea was 1 µg/mL; with Fusarium graminearum, 0.5 µg/mL; in the assay on Botrytis cinerea, 5 µg/mL; in the assay on Phytophthora infestans, 5 µg/mL; with Penicillium chrysogenum it was 10 µg/mL; in the assay on Paecilomyces variotii it was over 50 µg/mL. In addition, the IC100 with Rhizomucor miehei was 10 µg/mL. Further, the figures for the zone of inhibition at 50 µg/disc in the assay on Brevibacillus brevis, in the assay on Bacillus subtilis and in the assay with Eremothecium coryli were 11 mm, 10 mm and 13 mm, respectively. For the same compound, the MIC (in the assay with Escherichia coli; in assay [1]; with Proteus vulgaris) was over 50 µg/mL throughout. Further, the IC50 in assay [2] turned out to be 5 µg/mL (≈ 17.3 µM).

As for `CO/C=C1/C(=O)c2c(O)cc(OC)cc2C(=O)C1(O)CC(C)=O` (configuration not stated) [ASCOMYCONE C], the outcome in the assay with Caenorhabditis elegans, with Lepidium sativum [3], in the assay on Setaria italica [4], in the assay on Meloidogyne incognita, with Lepidium sativum [5] and with Setaria italica [6] was inactive. For the same compound, the IC100 in the assay with Pyricularia grisea is 2.5 µg/mL; with Fusarium graminearum it was 2.5 µg/mL; with Botrytis cinerea it was 50 µg/mL; in the assay on Phytophthora infestans, 5 µg/mL; in the assay on Penicillium chrysogenum, 15 µg/mL; with Paecilomyces variotii, over 50 µg/mL. Moreover, the IC100 with Rhizomucor miehei was over 50 µg/mL. For the same compound, the figures for the zone of inhibition at 50 µg/disc in the assay with Brevibacillus brevis, in the assay with Bacillus subtilis and in the assay on Eremothecium coryli were 7 mm, 0 mm and 11 mm, respectively. Further, the minimal inhibitory concentration (MIC) (against Escherichia coli; in assay [1]; in the assay with Proteus vulgaris) was over 50 µg/mL each time. The IC50 in assay [2] turned out to be 50 µg/mL (≈ 156 µM).
